We go through 51 compounds from ChEMBL document CHEMBL1148842, “Discovery of novel, non-acidic 1,5-biaryl pyrrole EP1 receptor antagonists” (Bioorg Med Chem Lett, 2007).

The target of the assay is T1, Prostaglandin E2 receptor EP1 subtype (Homo sapiens, UniProt P34995).
T1 sequence (P34995 whole entry): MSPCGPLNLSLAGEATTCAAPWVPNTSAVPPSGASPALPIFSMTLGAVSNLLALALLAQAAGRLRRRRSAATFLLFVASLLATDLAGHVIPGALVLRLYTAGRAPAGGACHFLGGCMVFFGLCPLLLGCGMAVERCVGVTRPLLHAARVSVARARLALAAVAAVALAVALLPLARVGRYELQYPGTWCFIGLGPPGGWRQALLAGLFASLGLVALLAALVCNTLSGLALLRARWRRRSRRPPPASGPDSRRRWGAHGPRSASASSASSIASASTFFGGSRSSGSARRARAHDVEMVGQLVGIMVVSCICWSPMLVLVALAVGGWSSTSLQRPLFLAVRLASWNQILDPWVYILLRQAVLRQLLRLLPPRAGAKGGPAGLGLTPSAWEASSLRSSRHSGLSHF
Kind of assay: Displacement of [3H]PGE2 from human recombinant EP1 receptor expressed in CHO cells. It is filed as cell-based. For orientation: In a radioligand displacement assay an active substance lowers the binding of a labelled ligand.
Broadly, the IC50 is the point on the concentration scale where inhibition reaches its midpoint. Regarding `CNC(=O)c1cccc(-n2c(C)ccc2-c2cc(Br)ccc2OCc2ccc(F)cc2F)c1`, the IC50 was 20 nM. The value for `Cc1ccc(-c2cc(Br)ccc2OCc2ccc(F)cc2F)n1-c1cccc(C(=O)N(C)C)c1` was 10 nM; that for `Cc1ccc(-c2cc(Cl)ccc2OCc2ccccc2)n1-c1ccc(C(=O)NCc2ccccn2)cc1` was 2.51 nM; that for `Cc1ccc(-c2cc(Cl)ccc2OCc2ccccc2)n1-c1cccc(C(=O)NS(=O)(=O)c2ccccc2)c1` was 2.51 nM. With `Cc1ccc(-c2ccccc2OCc2ccccc2)n1-c1cccc(C(=O)NS(=O)(=O)c2ccccc2)c1` the figure was 2.51 nM; with `Cc1ccc(-c2cc(Cl)ccc2OCc2ccccc2)n1-c1ccc(C(=O)NCc2ccncc2)cc1`, 63.1 nM. With `Cc1ccc(-c2cc(Cl)ccc2OCc2ccccc2)n1-c1ccc(S(=O)(=O)NC(=O)c2ccccc2)cc1` the figure was 7.94 nM; with `Cc1ccc(-c2cc(Br)ccc2OCc2ccc(F)cc2F)n1-c1cccc(C(O)(C(F)(F)F)C(F)(F)F)c1`, 25.1 nM. Turning to `Cc1ccc(-c2ccccc2OCc2ccccc2)n1-c1cccc(S(C)(=O)=O)c1`, the 50% inhibitory concentration (IC50) was greater than 1000 nM.

As for `Cc1ccc(-c2cc(Cl)ccc2OCc2ccccc2)n1-c1cccc(S(C)(=O)=O)c1`, the IC50 is 126 nM. On to `Cc1ccc(-c2cc(Br)ccc2OCc2ccccc2)n1-c1cccc(S(C)(=O)=O)c1`, for which the 50% inhibitory concentration (IC50) was 200 nM. Regarding `Cc1ccc(-c2cc(Cl)ccc2OCc2ccccc2)n1-c1ccc(S(C)(=O)=O)cc1`, the IC50 is 20 nM. Turning to `Cc1ccc(-c2cc(Br)ccc2OCc2ccccc2)n1-c1ccc(S(C)(=O)=O)cc1`, the half-maximal inhibitory concentration (IC50) is 31.6 nM. The value for `Cc1ccc(-c2cc(Br)ccc2OCc2ccc(F)cc2F)n1-c1ccc(C(N)=O)cc1` was 7.94 nM; that for `CNC(=O)c1ccc(-n2c(C)ccc2-c2cc(Br)ccc2OCc2ccc(F)cc2F)cc1` was 3.98 nM; that for `Cc1ccc(-c2cc(Br)ccc2OCc2ccc(F)cc2F)n1-c1ccc(C(=O)N(C)C)cc1` was 15.8 nM.

On to `Cc1ccc(-c2cc(Cl)ccc2OCc2ccccc2)n1-c1cccc(C(=O)NCc2ccccc2)c1`, for which the IC50 is 25.1 nM. Regarding `Cc1ccc(-c2cc(Cl)ccc2OCc2ccccc2)n1-c1cccc(C(=O)NCc2cccnc2)c1`, the half-inhibitory concentration (IC50) was 63.1 nM. With `Cc1ccc(-c2cc(Cl)ccc2OCc2ccccc2)n1-c1cccc(C(=O)NCc2ccncc2)c1` the figure was 63.1 nM; with `Cc1ccc(-c2cc(Br)ccc2OCc2ccc(F)cc2F)n1-c1cccc(-c2nc3ccccc3[nH]2)c1`, 63.1 nM. On to `Cc1nnc(-c2cccc(-n3c(C)ccc3-c3cc(Br)ccc3OCc3ccc(F)cc3F)c2)o1`, for which the IC50 is 39.8 nM.

In the case of `Cc1nc(-c2cccc(-n3c(C)ccc3-c3cc(Br)ccc3OCc3ccc(F)cc3F)c2)no1`, the IC50 was 200 nM. The value for `CC(=O)Nc1cccc(-n2c(C)ccc2-c2cc(Cl)ccc2OCc2ccccc2)c1` was 63.1 nM. With `Cc1ccc(-c2cc(Br)ccc2OCc2ccc(F)cc2F)n1-c1ccc(-c2cnc[nH]2)cc1` the figure was 39.8 nM; with `Cc1ccc(-c2cc(Cl)ccc2OCc2ccccc2)n1-c1ccc(C(=O)N[C@H](C)c2ccccc2)cc1`, 1.58 nM; with `Cc1ccc(-c2cc(Br)ccc2OCc2ccc(F)cc2F)n1-c1ccc2c(c1)C(=O)NC2=O`, 158 nM. Regarding `Cc1ccc(-c2ccccc2OCc2ccc(F)cc2F)n1-c1ccc2nn[nH]c2c1`, the concentration for half-maximal inhibition (IC50) is 631 nM. As for `Cc1ccc(-c2cc(Cl)ccc2OCc2ccccc2)n1-c1ccc2nn[nH]c2c1`, the IC50 is 25.1 nM. With `CCN(CC)C(=O)c1ccc(-n2c(C)ccc2-c2cc(Br)ccc2OCc2ccc(F)cc2F)cc1` the figure was 50.1 nM; with `Cc1ccc(-c2cc(Cl)ccc2OCc2ccccc2)n1-c1ccc(C(=O)NCc2ccccc2)cc1`, 25.1 nM; with `Cc1ccc(-c2cc(Cl)ccc2OCc2ccccc2)n1-c1ccc2cn[nH]c2c1`, 39.8 nM. Turning to `Cc1ccc(-c2cc(Br)ccc2OCc2ccc(F)cc2F)n1-c1cccc(-c2cccnc2)c1`, the IC50 was 126 nM.

As for `Cc1ccc(-c2cc(Br)ccc2OCc2ccc(F)cc2F)n1-c1cccc(-c2ccccn2)c1`, the IC50 was 251 nM. With `Cc1ccc(-c2cc(Cl)ccc2OCc2ccccc2)n1-c1ccc(C(=O)N[C@@H](C)c2ccccc2)cc1` the figure was 5.01 nM; with `Cc1ccc(-c2cc(Cl)ccc2OCc2ccccc2)n1-c1cccc(C(=O)N[C@@H](C)c2ccccc2)c1`, 316 nM. For `Cc1ccc(-c2cc(Br)ccc2OCc2ccc(F)cc2F)n1-c1cccc(C(=O)NS(C)(=O)=O)c1`, the IC50 was 3.98 nM. The value for `Cc1noc(C)c1S(=O)(=O)NC(=O)c1cccc(-n2c(C)ccc2-c2ccccc2OCc2ccccc2)c1` was 5.01 nM. As to `Cc1ccc(-c2cc(Cl)ccc2OCc2ccccc2)n1-c1ccc(-n2cncn2)cc1`, the half-maximal inhibitory concentration (IC50) is 501 nM. With `Cc1ccc(-c2cc(Br)ccc2OCc2ccc(F)cc2F)n1-c1cccc(C(=O)Nc2ccccc2)c1` the figure was 501 nM; with `Cc1ccc(-c2cc(Cl)ccc2OCc2ccccc2)n1-c1cccc(C(=O)N[C@H](C)c2ccccc2)c1`, 39.8 nM; with `Cc1ccc(-c2cc(Cl)ccc2OCc2ccccc2)n1-c1ccc2[nH]ncc2c1`, 39.8 nM.

On to `Cc1ccc(-c2cc(Cl)ccc2OCc2ccccc2)n1-c1ccc(S(N)(=O)=O)cc1`, for which the half-inhibitory concentration (IC50) is 20 nM. The value for `Cc1ccc(-c2ccccc2OCc2ccc(F)cc2F)n1-c1cccc(C(N)=O)c1` was 501 nM; that for `Cc1ccc(-c2cc(Cl)ccc2OCc2ccccc2)n1-c1cccc(C(N)=O)c1` was 63.1 nM.

In the case of `Cc1ccc(-c2cc(Br)ccc2OCc2ccc(F)cc2F)n1-c1cccc(-c2ncccn2)c1`, the half-maximal inhibitory concentration (IC50) was 126 nM. The value for `Cc1ccc(-c2cc(Cl)ccc2OCc2ccccc2)n1-c1cccc(S(=O)(=O)NC(=O)c2ccccc2)c1` was 79.4 nM; that for `Cc1ccc(-c2cc(Cl)ccc2OCc2ccccc2)n1-c1cccc(C(=O)NCc2ccccn2)c1` was 50.1 nM; that for `Cc1ccc(-c2cc(Cl)ccc2OCc2ccccc2)n1-c1ccc(C(=O)NCc2cccnc2)cc1` was 12.6 nM. Take `Cc1cc(=O)[nH]c2cc(-n3c(C)ccc3-c3cc(Cl)ccc3OCc3ccccc3)ccc12`: the IC50 was 63.1 nM. Take `Cc1ccc(-c2cc(Br)ccc2OCc2ccc(F)cc2F)n1-c1ccc(C(=O)NC(C)(C)C)cc1`: the concentration for half-maximal inhibition (IC50) was 15.8 nM. With `Cc1ccc(-c2ccccc2OCc2ccccc2)n1-c1ccc(S(C)(=O)=O)cc1` the figure was 501 nM.
